Test results published in patent US20230146870A1, “METHOD TO QUANTIFY AFFINITY AND SELECTIVITY OF SMALL MOLECULES FOR PROTEINS IN LIVING CELLS” (Ohio State Innovation Foundation, priority 2021, published 2023).
Several values for one entry are separate records, joined by “and”; a condition that tells them apart may be missing. Equal entries are not always repeated. Where two headings read alike, the source gives them in different places.

How the values were obtained:
[1] = system: HeLa cells; assay: Cellular viability of trypsinized HeLa cells under binding assay conditions; type: cell-based; conditions: 180 min
Protocol: Samples contained PB-GABA-Taxol (1.5 μM) unless otherwise noted. Viability was analyzed by flow cytometry at the time points shown. Dead cells were identified by changes in light scattering and staining with propidium iodide (3 μM). Changes in viability were less than 10% at 180 min under the conditions used for saturation binding and competitive binding assays, even in the presence of 100 μM paclitaxel.
For saturation binding assays, HeLa cells were incubated with PB-GABA-Taxol at 37° C. for 180 min in the presence of verapamil (100 μM).

[2] = system: T1, microtubules in living HeLa cells; assay: Saturation binding of PB-GABA-Taxol in living HeLa cells by flow cytometry
T1 construct: rows headed: PB-GABA-Taxol molecules/cell at saturation; other: calibration beads, flow cytometry; other: HeLa cell volume 4.5; cellular Kd of PB-GABA-Taxol for microtubules; other: HeLa cells, 4% FBS, 37° C., verapamil 100 μM, 3 h; other: 10% FBS vs
Protocol: To quantify the affinity of PB-GABA-Taxol for microtubules in living cells (cellular Kd), we developed the saturation binding method shown in FIG. 3. In this assay the cellular Kd was measured by varying the concentration of the fluorescent probe added to cells at equilibrium as established by kinetic assays of probe uptake. Total binding of this probe to specific and non-specific sites in cells in the presence of the efflux inhibitor verapamil was determined by flow cytometry. Non-specific binding was quantified separately by addition of excess paclitaxel with the probe under the same conditions. Subtraction of the linear non-specific binding contribution from the total binding curve was used analyze specific binding of the probe to tubulin of microtubules. […]
OptiMEM medium containing 4% FBS was prepared as 2× stock solutions of different concentrations of PB-GABA-Taxol by serial dilution (final [DMSO]=1.2%). […] The percentage of non-specific binding was determined as non-specific binding divided by total binding. The signal window (SW) was calculated as previously described^2: SW=[(mean top (maximum) signal−mean bottom (minimum) signal)−(3)*(SD top signal+SD bottom signal)]/(SD top signal), where SD=standard deviation.

[3] = system: HeLa cells; assay: Time to equilibrium / cellular uptake of PB-GABA-Taxol by flow cytometry; conditions: probe 1.5 μM
Protocol: Tubes were incubated in a plate shaker, and at each time point 150 pL of cells were analyzed, in triplicate, in wells containing propidium iodide (3 μM final concentration) to identify live cells by flow cytometry. Median pacific blue fluorescence was plotted as a function of time and half-time measurements were determined using an Exponential One-phase association model (GraphPad Prism 9).

[4] = target: crosslinked / purified microtubules; conditions: previously reported; read-out: biochemical Kd for microtubules; cited from earlier work
[5] = target: PKC 11 (C1B domain, tyrosine at the 22 position); conditions: phosphatidyl serine present, read-out: binding affinity (Kd) for DAG, cited from earlier work
[6] = system: HEK293 cells expressing PKCβI-mVenus; assay: Kinetics of uptake of probes in HEK293 cells transiently transfected with PKCβI-mVenus; type: cell-based; conditions: probe 1 μM, room temperature, BIM1 2 μM, 4% FBS
Protocol: Cells were treated with probes and analyzed by flow cytometry. […] [BIM1]=2 μM. [FBS]=4%.
(§1) To investigate the potential for quantitative analysis of binding to PKCs expressed in cells, we evaluated whether 1-3 could readily achieve equilibrium, which is necessary for measurements of cellular equilibrium dissociation constants (Kd).
The cells were re-suspended in fresh reduced serum media lacking antibiotics (4% FBS) at a cell density of ˜500,000 cells per mL and were added to a 96-well plate (100 μL per well). […] Fluorescent probes were prepared as absorbance-normalized 1 mM DMSO stock solutions and diluted into reduced serum DMEM media lacking antibiotics (4% FBS) to achieve a final concentration of the probe of 1 μM ([…]). [BIM1]=2 μM. After addition of probes, cells were analyzed at room temperature every 5 min as singletons. Living cells with the greatest green fluorescence from expression of mVenus (top 20%, transfected) and the lowest green fluorescence (bottom 20%, non-transfected) were gated to obtain median PB450 values of uptake of the fluorescent probes. For the slower kinetics of uptake of probe 3, cells were analyzed every 20 min in triplicate. These curves were fitted with a one-phase association model (GraphPad Prism 9) to determine t1/2 values.

[7] = target: T2, PKCβI-mVenus (Mus musculus, UniProt P68404); assay: Confocal microscopy of translocation of PKCβI-mVenus in HEK293 cells; type: cell-based; conditions: 2 μM, 2 h
T2 construct: we generated expression vectors for eight full-length mouse isozymes; expressed in transfected cells; host or cells: HEK293 (ATCC CRL-1573), transient transfection with CMV-PKC betaI-mVenus-N1
Protocol: FIGS. 36A-36D provide confocal and DIC micrographs of living HEK293 cells transiently transfected to express PKCβI-mVenus. […] Scale bars=10 microns.
This IRES vector was derived from a previously reported^52 variant encoding the somewhat less fluorescent protein Venus.
Living cells cultured on an 8-well chamber glass slide (Ibidi μ-Slide, 300 μL, 100,000 cells/well) were imaged with an inverted Leica TCS SP8 confocal laser-scanning microscope (63× oil-immersion objective). Fluorescent probes were excited at 405 nm and mVenus was excited at 488 nm. Emitted photons were collected from 425-500 nm and 500-650 nm. For imaging, transiently transfected HEK293 cells in complete medium (10% FBS) were plated on the Ibidi μ-Slide for 16 h to promote adherence. Concentrated stock solutions of fluorescent probes in DMSO were serially diluted 500-fold in serum-free DMEM medium to afford 2× stock solutions (0.2% DMSO). Half of the cell culture medium (150 μL) was carefully removed by pipet and gently replaced with the 2× stock solution of the probe in serum-free medium (final [FBS]˜5%). Cells were treated with probes (2 μM) at 37° C. for 2 h before imaging by microscopy. Laser power and PMT gain settings were identical for all images and controls within a given experiment for accurate comparisons of cellular fluorescence.

[8] = target: T3, murine PKCβI-mVenus (Mus musculus, UniProt P68404); assay: FPCBA saturation binding, HEK293 cells expressing PKCβI-mVenus (Example 3); conditions: BIM1 2 μM, 2 h at 37° C., 4% FBS
T3 construct: fused on or other part: mVenus at the C-terminus
Excerpt: as §1

[9] = system: microtubule network of HeLa cells (mScarlet-α-Tubulin); assay: Confocal microscopy of HeLa cells transfected with mScarlet-α-Tubulin; type: cell-based; conditions: 1 h at 37° C.
Protocol: (FIG. 28C) Characterization of fluorescent microtubule phenotypes in HeLa cells transiently transfected with mScarlet-a-Tubulin and treated with the microtubule modulators (1 h at 37° C.). […] Scale bars=10 μm.
Cells were washed with PBS before treatment with PB-GABA-Taxol (100 nM) and (±)-verapamil hydrochloride (100 μM), with or without paclitaxel (10 μM) as a competitor, in phenol red-free DMEM supplemented with 10% FBS. Cells were incubated at 37° C. for 3 h prior to imaging by confocal microscopy. For experiments using HeLa cells transfected with mScarlet-α-tubulin, transient transfection was performed using a Invitrogen Lipofectamine 3000 Transfection kit (Thermo, L3000-075). Transfection used a 1× dose of lipid in OptiMEM (4% FBS) for 18 hours before washing of cells with PBS and treatment with the microtubule modulator for 1 h at 37° C.

[10] = system: cellular microtubules (HeLa cells); assay: Pilot screen of NCI Diversity Set VI: inhibition of binding of PB-GABA-Taxol, with dose-response validation
[11] = system: microtubules in living HeLa cells; assay: Allosteric modulator assay with PB-GABA-Taxol in living HeLa cells (cellular Kb, α); conditions: PB-GABA-Taxol 1.5 μM, verapamil 100 μM, 3 h, 37° C.
Excerpt: In this model, two compounds that engage tubulin at different binding sites influence the binding of each other through cooperativity. […] Smaller cooperativity factors (α) represent stronger effects on binding of the orthosteric probe. For these allosteric modulators, the apparent cellular affinity was defined as Kb, and the mathematical relationship between Kb and α is provided (equation 3).
The experimental method for allosteric binding assays was identical to the competition binding assays described previously. However, because it is inaccurate to describe an allosteric modulator with a competitive inhibitory constant (Ki), we used an allosteric modulator model (Kb) for data analysis. […] The observed occupancy of the orthosteric ligand is defined as KApp and is determined by the equilibrium dissociation constant of the orthosteric ligand (Kd), the concentration of allosteric ligand, its affinity for the receptor (Kb), and the strength by which the allosteric ligand affects receptor binding to the orthosteric ligand as defined by the cooperativity factor (a).

[12] = Cytotoxicity assay, 48 h, flow cytometry; type: cell-based; conditions: human, HeLa cells
Protocol: Trypsinized HeLa cells were resuspended at 40,000 cells/mL in DMEM medium containing 10% FBS and seeded at 8,000 cells/200 μL/well in a treated 96-well plate. The cells were incubated for 16 h at 37° C. The medium was removed and DMEM medium containing 10% FBS treated with compounds (prepared as 3-fold serial dilutions, 0.1% DMSO content) was added. Cells were treated for 48 h at 37° C. before removal of treated medium, washing cells with PBS (100 μL), and addition of Trypsin-EDTA (50 μL) for 10 min at 37° C. Trypsin was neutralized and cells resuspended by addition of 100 μL of complete medium treated with propidium iodide (final concentration 3 μM). Cellular viabilities were analyzed by gating of cells that lack fluorescence of propidium iodide by flow cytometry.

T2 sequence (P68404 whole entry): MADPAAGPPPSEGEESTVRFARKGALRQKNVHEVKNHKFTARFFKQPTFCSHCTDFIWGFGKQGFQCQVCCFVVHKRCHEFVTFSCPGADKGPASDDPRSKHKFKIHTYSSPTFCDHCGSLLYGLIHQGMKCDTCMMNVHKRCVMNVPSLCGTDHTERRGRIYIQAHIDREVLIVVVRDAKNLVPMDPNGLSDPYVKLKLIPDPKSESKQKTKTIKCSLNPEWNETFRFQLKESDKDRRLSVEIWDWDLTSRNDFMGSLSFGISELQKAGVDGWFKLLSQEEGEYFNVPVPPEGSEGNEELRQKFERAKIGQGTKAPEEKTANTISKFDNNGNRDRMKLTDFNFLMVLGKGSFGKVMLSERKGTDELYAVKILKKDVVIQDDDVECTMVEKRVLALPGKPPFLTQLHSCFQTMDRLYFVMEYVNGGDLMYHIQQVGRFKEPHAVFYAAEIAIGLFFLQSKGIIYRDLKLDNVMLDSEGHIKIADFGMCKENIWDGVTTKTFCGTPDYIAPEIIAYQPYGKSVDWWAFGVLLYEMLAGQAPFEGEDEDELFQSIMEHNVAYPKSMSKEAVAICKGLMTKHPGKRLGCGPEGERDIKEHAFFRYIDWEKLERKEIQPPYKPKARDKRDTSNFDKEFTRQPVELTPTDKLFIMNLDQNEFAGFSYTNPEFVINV
T3 sequence (P68404 2-621 limits assumed): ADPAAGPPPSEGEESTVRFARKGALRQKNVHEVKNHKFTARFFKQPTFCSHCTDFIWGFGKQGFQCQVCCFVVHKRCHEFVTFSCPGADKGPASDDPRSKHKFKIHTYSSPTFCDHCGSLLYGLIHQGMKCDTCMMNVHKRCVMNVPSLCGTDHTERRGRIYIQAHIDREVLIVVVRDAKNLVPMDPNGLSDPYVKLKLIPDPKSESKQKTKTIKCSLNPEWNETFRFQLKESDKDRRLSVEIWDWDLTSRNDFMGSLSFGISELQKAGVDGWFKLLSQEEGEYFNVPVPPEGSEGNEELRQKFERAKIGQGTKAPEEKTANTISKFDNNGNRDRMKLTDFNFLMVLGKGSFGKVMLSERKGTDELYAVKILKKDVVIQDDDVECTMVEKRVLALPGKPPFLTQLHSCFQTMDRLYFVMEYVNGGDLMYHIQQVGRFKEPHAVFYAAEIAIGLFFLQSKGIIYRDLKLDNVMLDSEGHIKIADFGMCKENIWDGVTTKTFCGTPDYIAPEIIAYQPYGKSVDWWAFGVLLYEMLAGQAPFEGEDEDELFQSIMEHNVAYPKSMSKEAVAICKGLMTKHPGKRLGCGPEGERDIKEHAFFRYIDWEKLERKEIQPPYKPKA

CC(=O)O[C@H]1C(=O)[C@]2(C)[C@@H](OC(=O)CCCNC(=O)c3cc4cc(F)c(O)c(F)c4oc3=O)C[C@H]3OC[C@@]3(OC(C)=O)[C@H]2[C@H](OC(=O)c2ccccc2)[C@]2(O)C[C@H](OC(=O)[C@H](O)[C@@H](NC(=O)c3ccccc3)c3ccccc3)C(C)=C1C2(C)C [PB-GABA-Taxol]
cells remaining viable ([1]; 37° C., verapamil 100 μM): > 90% | changes in viability ([1]; binding assay conditions, even with 100 μM paclitaxel): less than 10% | reduction of apparent affinity by ligand depletion in 10% FBS ([2]; 10% FBS vs 4% or 1% FBS): 2 fold | Kd ([2]; HeLa cells, 4% FBS, 37° C., verapamil 100 μM, 3 h, read-out: cellular Kd of PB-GABA-Taxol for microtubules): 1700 ± 400 nM | half-time (t1/2) to equilibration of cellular fluorescence ([3]; 37° C., verapamil 100 μM): 0.55 h | half-time (t1/2) to equilibration of cellular fluorescence ([3]; room temperature (23° C.)): 1.45 h | Kd [4]: 265 nM

diacylglycerol [DAG]
Kd ([5]; tyrosine at the 22 position): 780000 nM | Kd ([5]; tyrosine changed into tryptophan): 24000 nM

CCCCCCN(CCCCCCCCCCCCNC(=O)c1cc2ccc(N(CC)CC)cc2oc1=O)C(=O)O[C@@]12[C@H](O)[C@@H](C)[C@@]3(O)[C@@H](C=C(CO)C[C@]4(O)C(=O)C(C)=C[C@@H]34)[C@@H]1C2(C)C [probe 3, (1aR,1bS,4aR,7aS,7bS,8R,9R,9aS)-4a,7b,9-trihydroxy-3-(hydroxymethyl)-1,1,6,8-tetramethyl-5-oxo-1,1a,1b,4,4a,5,7a,7b,8,9-decahydro-9aH-cyclopropa[3,4]benzo[1,2-e]azulen-9a-yl (12-(7-(diethylamino)-2-oxo-2H-chromene-3-carboxamido)dodecyl)(hexyl)carbamate]
half-time (t1/2) of cellular uptake in transfected cells [6]: > 1.67 h | translocation of PKCβI-mVenus [7]: translocated to cellular membranes

CCCCCCN(CCCCCCCCCCCCNC(=O)c1cc2ccc(O)cc2oc1=O)C(=O)O[C@@]12[C@H](O)[C@@H](C)[C@@]3(O)[C@@H](C=C(CO)C[C@]4(O)C(=O)C(C)=C[C@@H]34)[C@@H]1C2(C)C [probe 2, (1aR,1bS,4aR,7aS,7bS,8R,9R,9aS)-4a,7b,9-trihydroxy-3-(hydroxymethyl)-1,1,6,8-tetramethyl-5-oxo-1,1a,1b,4,4a,5,7a,7b,8,9-decahydro-9aH-cyclopropa[3,4]benzo[1,2-e]azulen-9a-yl hexyl(12-(7-hydroxy-2-oxo-2H-chromene-3-carboxamido)dodecyl)carbamate]
half-time (t1/2) of cellular uptake in transfected cells [6]: 0.233 h | translocation of PKCβI-mVenus [7]: translocated to cellular membranes | Cellular Kd for probe, PKCβI-mVenus [8]: prevented reliable measurements of cellular affinity

NC(=O)c1cc2c3ccccc3ccn2c1-c1ccccc1 [NSC 93427]
fluorescent microtubule phenotype [9]: dose-dependent disruption of microtubules | inhibition of cellular fluorescence ([10]; 10 μM): nearly complete inhibition | IC50 ([10]; HeLa cells, PB-GABA-Taxol): < 1000 nM | cooperativity factor α [11]: 0.02 | Kb ([11]; read-out: cellular Kb (allosteric modulator)): 485 nM and 483 nM

COc1cc2c(c(OC)c1OC)-c1ccc(OC)c(=O)cc1[C@@H](NC(C)=O)CC2 [colchicine]
IC50 at 48 h ([12]; with verapamil 25 µM, verapamil 25 μM): 13 ± 0.4 nM | IC50 at 48 h ([12]; without verapamil): 20 ± 8 nM
